Where a SMILES comes first, the peptide text is derived from it. [ ]: non-standard residue; d: D form. The star is where a group is joined. ξ: configuration not given here. Pro(trans-4-F) = O=C(O)[C@@H]1C[C@@H](F)CN1; NMeW = CN[C@@H](Cc1c[nH]c2ccccc12)C(=O)O; Benzoyl(3,5-F2) = O=C(c1cc(F)cc(F)c1)*; NMeIle(3ξ) = CCC(C)[C@H](NC)C(=O)O; NMeQ = CN[C@@H](CCC(N)=O)C(=O)O; NMeL = CN[C@@H](CC(C)C)C(=O)O; NMeA = CN[C@@H](C)C(=O)O; Dab = NCC[C@H](N)C(=O)O; Hexanoyl = CCCCCC(=O)*; Butyryl = CCCC(=O)*; Bz = O=C(c1ccccc1)*; NHOH = ON*
Columns and labels:
Type in all cases: biochemical
MMP-2 = MMP-2 (Homo sapiens (Human), UniProt P08253); experiment: MMP-2 inhibition assay (fluorimetric, DQ gelatin substrate); conditions: recombinant MMP-2 (CHO cells) 85 ng/mL, DQ gelatin 50 μg/mL, 2 hours at room temperature, pH 7.6
Protocol: (§1) All the experiments were done in 1× reaction buffer, which was obtained from a 10× reaction buffer solution. The content of the 10× reaction buffer was: 50 mL of 0.5 M Tris-HCl, 1.5 M NaCl, 50 mM CaCl2 and 2 mM sodium azide at pH 7.6. To obtain the 1× reaction buffer 4 mL of the 10× reaction buffer were diluted in 36 mL of H2O.
Recombinant MMP-2 expressed in Chinese hamster ovary (CHO) cells was obtained from Merck-Millipore (catalog number PF023-5UG). DQ gelatin from pig skin fluorescein conjugated (MMP-2 substrate) was obtained from Life Technologies (catalog number E12055).
Preparation of the MMP-2 for the activity assay: MMP-2 was provided as a stock solution (0.1 mg/mL). The enzyme was diluted in 1× reaction buffer to a final concentration of 5 μg/mL.
Preparation of the DQ gelatin (substrate) solution for the activity assay: the solid form of the substrate was dissolved in water in order to obtain a stock solution of 1 mg/mL.
Procedure: The enzymatic assays were performed in 96-well microtiter plate, which allowed simultaneous monitoring of multiple reactions. For each reaction, 86.3 μL of 1× reaction buffer (pH 7.6), 1.7 μL of MMP-2 (final concentration 85 ng/mL) and 2 μL of the corresponding new compound were added to each well. A stock solution of new compound was prepared in DMSO (100 mM), and dilutions were prepared from this stock solution with DMSO. Finally, to the mixture contained in each well 10 μL of the substrate were added (final concentration 50 μg/mL). The reaction was incubated for 2 hours at room temperature in an orbital shaker (100 rpm).
The inhibitory activity of the new compound was measured fluorimetrically. The excitation and emission wavelengths were 483 and 525 nm, respectively.
Inhibitory activity at several concentration points (ranging from 100 pM to 200 μM MMP) were measured for each compound. The inhibitory activity on MMP-2 and MMP-9 was calculated according to eq 1. For each new compound, the fluorescence in the presence (a) and in the absence (b) of the corresponding MMP was measured. The maximum fluorescence (0% inhibitory activity) was obtained from a sample of the corresponding MMP in the absence of inhibitory compounds. To estimate the inhibitory potency of the novel compounds, activities were plotted against the log concentration of the compound, adjusting to a sigmoid curve using GraphPad Prism software, and the IC50 value, defined as the concentration of compound required to inhibit 50% of the corresponding MMP activity, was determined from resulting curve.
a corresponds to fluorescence intensity in the presence of substrate+test compound+MMP
b corresponds to the fluorescence intensity in the presence of substrate+tested compound
c corresponds to the fluorescence intensity in the presence of substrate+MMP
d corresponds to the fluorescence intensity of the presence of substrate

MMP-3 = MMP-3 (Homo sapiens (Human), UniProt P08254); experiment: MMP-3 inhibition assay (fluorogenic peptide substrate); conditions: recombinant MMP-3 7.7 nM, Mca-RPKPVE-Nval-WRK(Dnp)-NH2 10 μM, 4 hours at room temperature; tested at 1, 10, 100 and 200 μM
Protocol: as §1
Recombinant MMP-3 expressed in E. Coli was obtained from Merck-Millipore (catalog number 44217). Mca-RPKPVE-Nval-WRK(Dnp)-NH2 (fluorogenic peptide substrate) was obtained from R&D Systems (catalog number ES002).
Preparation of the MMP-3 for the activity assay: MMP-3 was provided as a stock solution (0.1 mg/mL). The enzyme was diluted in water to a final concentration of 0.005 mg/mL.
MMP-3 peptide substrate was provided as a stock solution in DMSO (4.5 mM). For the assay, the substrate was diluted 1× reaction buffer to a concentration of 100 μM.
Procedure: The enzymatic assays were performed in 96-well microtiter plate, which allowed simultaneous monitoring of multiple reactions. For each reaction, 84.6 μL of 1× reaction buffer (pH 7.6), 3.4 μL of MMP-3 (final concentration 7.7 nM) and 2 μL of the corresponding new compound were added to each well. A stock solution of new compound was prepared in DMSO (100 mM), and dilutions were prepared from this stock solution with DMSO. Finally, to the mixture contained in each well 10 μL of the substrate were added (final concentration 10 μM). The reaction was incubated for 4 hours at room temperature in an orbital shaker (90 rpm).
(§2) The inhibitory activity of the new compound was measured fluorimetrically. The excitation and emission wavelengths were 320 and 405 nm, respectively.
(§3) Inhibitory activity at several concentration points (1, 10, 100 and 200 μM) were measured for each compound. The inhibitory activity on MMP-1, MMP-3 and MMP-7 was calculated according to eq 1 and The IC50 value was calculated as explained above for MMP-2 and MMP-9.

MMP-1 = MMP-1 (Homo sapiens (Human), UniProt P03956); experiment: MMP-1 inhibition assay (fluorogenic peptide substrate); conditions: recombinant MMP-1 5.52 nM, Mca-PLGL-Dpa-AR-NH2 10 μM, 4 hours at room temperature; tested at 1, 10, 100 and 200 μM
Protocol: as §1
Recombinant MMP-1 expressed in E. Coli was obtained from Enzo Life Sciences (catalog number BML-SE180). Mca-PLGL-Dpa-AR-NH2 (fluorogenic peptide substrate) was obtained from R&D Systems (catalog number ES001).
Preparation of the MMP-1 for the activity assay: MMP-1 was provided as a stock solution (0.55 mg/mL). The enzyme was diluted in 1× reaction buffer to a final concentration of 276 nM.
MMP-1 peptide substrate was provided as a stock solution in DMSO (6 mM). For the assay, the substrate was diluted 1× reaction buffer to a concentration of 100 μM.
Procedure: The enzymatic assays were performed in 96-well microtiter plate, which allowed simultaneous monitoring of multiple reactions. For each reaction, 86 μL of 1× reaction buffer (pH 7.6), 2 μL of MMP-1 (final concentration 5.52 nM) and 2 μL of the corresponding new compound were added to each well. A stock solution of the new compound was prepared in DMSO (100 mM), and dilutions were prepared from this stock solution with DMSO. Finally, to the mixture contained in each well 10 μL of the substrate were added (final concentration 10 μM). The reaction was incubated for 4 hours at room temperature in an orbital shaker (100 rpm).
as §2, §3

Chain of MMP-2 (P08253 110-660): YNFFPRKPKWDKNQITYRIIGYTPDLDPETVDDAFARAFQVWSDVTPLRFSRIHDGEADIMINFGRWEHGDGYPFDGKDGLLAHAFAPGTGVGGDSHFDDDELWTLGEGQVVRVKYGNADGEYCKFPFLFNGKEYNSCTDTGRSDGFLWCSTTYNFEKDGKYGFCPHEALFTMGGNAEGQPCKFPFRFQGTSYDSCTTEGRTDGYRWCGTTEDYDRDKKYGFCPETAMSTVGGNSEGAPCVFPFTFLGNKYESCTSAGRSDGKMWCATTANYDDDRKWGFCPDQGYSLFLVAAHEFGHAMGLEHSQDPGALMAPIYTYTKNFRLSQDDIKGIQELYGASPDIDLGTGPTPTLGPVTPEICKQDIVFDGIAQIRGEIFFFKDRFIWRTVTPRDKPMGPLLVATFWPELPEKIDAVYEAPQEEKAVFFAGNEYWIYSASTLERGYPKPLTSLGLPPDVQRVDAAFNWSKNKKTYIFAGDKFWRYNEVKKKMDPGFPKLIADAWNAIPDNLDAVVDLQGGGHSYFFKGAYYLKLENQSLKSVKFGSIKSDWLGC
Chain of MMP-3 (P08254 100-477): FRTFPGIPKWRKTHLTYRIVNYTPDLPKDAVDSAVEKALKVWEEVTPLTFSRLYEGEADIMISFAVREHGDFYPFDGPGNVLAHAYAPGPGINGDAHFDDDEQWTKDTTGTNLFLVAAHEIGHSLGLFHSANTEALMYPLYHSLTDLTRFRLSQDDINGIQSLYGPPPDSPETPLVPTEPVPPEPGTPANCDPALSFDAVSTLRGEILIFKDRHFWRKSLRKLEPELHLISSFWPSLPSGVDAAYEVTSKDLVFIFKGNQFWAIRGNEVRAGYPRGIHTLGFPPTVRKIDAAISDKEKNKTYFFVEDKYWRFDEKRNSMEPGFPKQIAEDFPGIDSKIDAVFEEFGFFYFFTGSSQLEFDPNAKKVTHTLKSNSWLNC
Chain of MMP-1 (P03956 100-269): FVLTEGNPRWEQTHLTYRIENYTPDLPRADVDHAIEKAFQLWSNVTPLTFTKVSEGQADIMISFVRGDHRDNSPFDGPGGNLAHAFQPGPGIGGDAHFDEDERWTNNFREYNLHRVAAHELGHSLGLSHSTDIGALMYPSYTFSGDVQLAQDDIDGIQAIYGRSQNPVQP

SMILES	IC50 (MMP-2) [µM]	IC50 (MMP-3) [µM]	IC50 (MMP-1) [µM]	MMP-3 IC50 (MMP-3) [µM]	MMP-1 IC50 (MMP-1) [µM]
CCC(C)[C@@H](C(=O)N[C@@H](CCNC(=O)c1cc(F)cc(F)c1)C(=O)NO)N(C)C(=O)[C@@H]1CCCN1C(=O)[C@H](C)N(C)C(C)=O (stereo partly drawn) [Example 12, (2 S)-1-[(2S)-2-[acetyl(methyl)amino]propanoyl]-N-[(1S)-1-[[(1S)-3-[(3,5-difluorobenzoyl)amino]-1-(hydroxycarbamoyl)propyl]carbamoyl]-2-methyl-butyl]-N-methyl-pyrrolidine-2-carboxamide] (Ac-[NMeA]P[NMeIle(3ξ)][Dab](Benzoyl(3,5-F2))-{NHOH})	0.021	157	14.9	–	–
CCCC(=O)N(C)[C@@H](Cc1c[nH]c2ccccc12)C(=O)N(C)[C@@H](CC(C)C)C(=O)N1CCC[C@H]1C(=O)N(C)[C@H](C(=O)N[C@@H](CCNC(=O)c1cc(F)cc(F)c1)C(=O)NO)C(C)CC (stereo partly drawn) [Example 14, (2S)-1-[(2S)-2-[[(2S)-2-[butanoyl(methyl)amino]-3-(1H-indol-3-yl)propanoyl]-methyl-amino]-4-methyl-pentanoyl]-N-[(1S)-1-[[(1S)-3-[(3,5-difluorobenzoyl)amino]-1-(hydroxycarbamoyl)propyl]carbamoyl]-2-methyl-butyl]-N-methyl-pyrrolidine-2-carboxamide] (Butyryl-[NMeW][NMeL]P[NMeIle(3ξ)][Dab](Benzoyl(3,5-F2))-{NHOH})	0.116	–	6.07	<1	–
CCC(C)[C@@H](C(=O)N[C@@H](CCNC(=O)c1cc(F)cc(F)c1)C(=O)NO)N(C)C(=O)[C@@H]1CCCN1C(=O)CCCOc1ccccc1 (stereo partly drawn) [Example 9, (2S)—N-[(1S)-1-[[(1S)-3-[(3,5-difluorobenzoyl)amino]-1-(hydroxycarbamoyl)propyl]carbamoyl]-2-methyl-butyl]-N-methyl-1-(4-phenoxybutanoyl)pyrrolidine-2-carboxamide]	0.362	3.2	11.4	–	–
CCC(C)[C@@H](C(=O)N[C@@H](CCNC(=O)c1cc(F)cc(F)c1)C(=O)NO)N(C)C(=O)[C@@H]1CC(F)(F)CN1C(=O)CCCOc1ccccc1 (stereo partly drawn) [Example 10, (2S)—N-[(1S)-1-[[(1S)-3-[(3,5-difluorobenzoyl)amino]-1-(hydroxycarbamoyl)propyl]carbamoyl]-2-methyl-butyl]-4,4-difluoro-N-methyl-1-(4-phenoxybutanoyl)pyrrolidine-2-carboxamide]	0.037	160	6.61	–	–
CCC(C)[C@@H](C(=O)N[C@@H](CCNC(=O)c1cc(F)cc(F)c1)C(=O)NO)N(C)C(=O)[C@@H]1CCCN1C(=O)CC(C)C (stereo partly drawn) [Example 5, (2S)—N-[(1S)-1-[[(1S)-3-[(3,5-difluorobenzoyl)amino]-1-(hydroxycarbamoyl)propyl]carbamoyl]-2-methyl-butyl]-N-methyl-1-(3-methylbutanoyl)pyrrolidine-2-carboxamide]	0.116	25.7	6.68	–	–
CCCCCC(=O)N1CC(F)(F)C[C@H]1C(=O)N(C)[C@H](C(=O)N[C@@H](CCNC(=O)c1cc(F)cc(F)c1)C(=O)NO)C(C)CC (stereo partly drawn) [Example 7, (2S)—N-[(1S)-1-[[(1S)-3-[(3,5-difluorobenzoyl)amino]-1-(hydroxycarbamoyl)propyl]carbamoyl]-2-methyl-butyl]-4,4-difluoro-1-hexanoyl-N-methyl-pyrrolidine-2-carboxamide]	0.159	22.5	24.7	–	–
CC(=O)N1CCC[C@H]1C(=O)N(C)[C@@H](CCC(N)=O)C(=O)N[C@@H](Cc1c[nH]c2ccccc12)C(=O)NO [Example C20, (2S)-2-[[(2S)-1-acetylpyrrolidine-2-carbonyl]-methyl-amino]-N-[(1S)-2-(hydroxyamino)-1-(1H-indol-3-ylmethyl)-2-oxo-ethyl]pentanediamide, reference compound] (Ac-Pro-[NMeQ]-Trp-{NHOH})	53	> 2000	> 2000	–	–
CCCCCC(=O)N1C[C@H](F)C[C@H]1C(=O)N(C)[C@H](C(=O)N[C@@H](CCNC(=O)c1ccccc1)C(=O)NO)C(C)CC (stereo partly drawn) [Example 16, (2S,4R)—N-[(1S)-1-[[(1S)-3-benzamido-1-(hydroxycarbamoyl)propyl]carbamoyl]-2-methyl-butyl]-4-fluoro-N-methyl-1-hexanoyl-pyrrolidine-2-carboxamide] (Hexanoyl-[Pro(trans-4-F)]-[NMeIle(3ξ)]-[Dab](Bz)-{NHOH})	< 0.001	–	–	<1	<1
CCCC(=O)N1CCC[C@H]1C(=O)N(C)[C@H](C(=O)N[C@@H](CCNC(=O)c1cc(F)cc(F)c1)C(=O)NO)C(C)CC (stereo partly drawn) [Example 4, (2S)-1-butanoyl-N-[(1S)-1-[[(1S)-3-[(3,5-difluorobenzoyl)amino]-1-(hydroxycarbamoyl)propyl]carbamoyl]-2-methyl-butyl]-N-methyl-pyrrolidine-2-carboxamide]	0.062	13.3	4.73	–	–
CCC(C)[C@@H](C(=O)N[C@@H](CCNC(=O)c1cc(F)cc(F)c1)C(=O)NO)N(C)C(=O)[C@@H]1CCCN1C(C)=O (stereo partly drawn) [Example 2, (2S)-1-acetyl-N-[(1S)-1-[[(1S)-3-[(3,5-difluorobenzoyl)amino]-1-(hydroxycarbamoyl)propyl]carbamoyl]-2-methyl-butyl]-N-methyl-pyrrolidine-2-carboxamide]	0.242	19.2	4.94	–	–
CCCCCC(=O)N1CCC[C@H]1C(=O)N(C)[C@H](C(=O)N[C@@H](CCNC(=O)c1ccccc1)C(=O)NO)C(C)CC (stereo partly drawn) [Example 15, (2S)—N-[(1S)-1-[[(1S)-3-benzamido-1-(hydroxycarbamoyl)propyl]carbamoyl]-2-methyl-butyl]-N-methyl-1-hexanoyl-pyrrolidine-2-carboxamide] (Hexanoyl-Pro-[NMeIle(3ξ)]-[Dab](Bz)-{NHOH})	0.285	9.89	10.8	–	–
